{"source": "patent US20200338016A1", "about": "“COMBINATION BROAD-SPECTRUM ANTIBIOTIC PREPARATIONS FOR DRUG-RESISTANT PATHOGENS” (priority 2019, published 2020)", "origin": "cited, not measured here", "key": {"[1]": {"test_system": "multidrug resistant Acinetobacter baumannii", "conditions": "six strains of multidrug resistant Acinetobacter baumannii"}, "[2]": {"test_system": "antibiotic-resistant bacteria", "conditions": "against antibiotic-resistant bacteria"}, "[3]": {"test_system": "multidrug-resistant Acinetobacter baumannii"}, "MRSA": {"test_system": "MRSA", "conditions": "for MBEC: Minimal Biofilm Eradication Concentration, single agent; for MIC: Minimal Inhibitory Concentration"}, "[4]": {"test_system": "antibiotic resistant C. albicans"}, "[5]": {"test_system": "multidrug resistant Klebsiella pneumonia", "conditions": "twenty strains of multidrug resistant Klebsiella pneumonia"}, "[6]": {"test_system": "antibiotic resistant bacteria", "conditions": "four antibiotic resistant bacteria"}, "[7]": {"test_system": "antibiotic resistant bacteria", "conditions": "four strains of antibiotic resistant bacteria; extracted from horseradish"}, "[8]": {"test_system": "antibiotic resistant Staphylococcus aureus"}, "[9]": {"test_system": "extensively multidrug resistant Acinetobacter baumannii"}, "[10]": {"test_system": "antibiotic-resistant streptococcus", "conditions": "32 strains of antibiotic-resistant streptococcus"}, "[11]": {"test_system": "Staphylococcus aureus (NCTC 6571)"}, "[12]": {"test_system": "Escherichia coli (NCTC 10418)"}, "[13]": {"test_system": "Bacillus subtilis (NCTC 8236)"}, "[14]": {"test_system": "Proteus vulgaris (NCTC 4175)"}, "[15]": {"test_system": "Aspergillus niger (ATCC 10578)"}, "[16]": {"test_system": "Candida albicans (ATCC 10231)"}, "[17]": {"test_system": "methicillin-resistant Staphylococus aureus"}, "[18]": {"test_system": "methicillin-resistant Staphylococcus aureus", "conditions": "MRSA"}}, "note": "Read-outs that look alike come from different tables or passages of the source."}
{"molecule": "O=c1c(O)cc([C@H]2Oc3cc(O)cc(O)c3C[C@H]2O)cc2c([C@H]3Oc4cc(O)cc(O)c4C[C@H]3O)cc(O)c(O)c12", "note": "[theaflavin]", "values": [{"measurement": "concentration that inhibits", "setting": "[1]", "result": 512, "unit": "milligrams per liter"}, {"measurement": "antibiotic properties (in words)", "setting": "[2]", "result": "antibiotic properties"}]}
{"molecule": "O=c1cc(-c2ccccc2)oc2c(O)c(O)cc(O)c12", "note": "[norwogonin]", "values": [{"measurement": "concentration that inhibits", "setting": "[3]", "result": "1,000 micrograms per milliliter"}]}
{"molecule": "C=CCc1ccc(O)c(OC)c1", "note": "[Eugenol]", "values": [{"measurement": "MBC", "setting": "MRSA; Minimal Bactericidal Concentration", "result": "0.08 percentage of volume"}, {"measurement": "MBEC", "setting": "MRSA", "result": "0.08 percentage of volume"}, {"measurement": "MIC", "setting": "MRSA", "result": "0.04 percentage of volume"}]}
{"molecule": "Oc1ccc([C@H]2Oc3cc(O)cc(O)c3C[C@H]2O)cc1", "note": "[epiafzelechin]", "values": [{"measurement": "antibiotic properties (in words)", "setting": "[2]", "result": "antibiotic properties"}]}
{"molecule": "catechin gallate", "values": [{"measurement": "antibiotic properties (in words)", "setting": "[2]", "result": "antibiotic properties"}]}
{"molecule": "CC(C)=CCC/C(C)=C/CO", "note": "[geraniol]", "values": [{"measurement": "concentration that inhibits", "setting": "[4]", "result": 1580, "unit": "micrograms per milliliter"}]}
{"molecule": "O=C(O)/C=C/c1ccc(O)c(O)c1", "note": "[caffeic acid]", "values": [{"measurement": "concentration that kills", "setting": "[5]", "result": 1024, "unit": "microgram per milliliter"}]}
{"molecule": "Cn1c(=O)c2c(ncn2C)n(C)c1=O", "note": "[caffeine]", "values": [{"measurement": "antibiotic properties (in words)", "setting": "[2]", "result": "antibiotic properties"}]}
{"molecule": "catechin", "values": [{"measurement": "concentration that kills", "setting": "[6]", "result": 5, "unit": "milligrams per milliliter"}, {"measurement": "antibiotic properties (in words)", "setting": "[2]", "result": "antibiotic properties"}]}
{"molecule": "C=CC(C)(O)CCC=C(C)C", "note": "(centres unmarked) [linalool]", "values": [{"measurement": "concentration that inhibits", "setting": "[4]", "result": 1580, "unit": "micrograms per milliliter"}]}
{"molecule": "O=c1c(O)c(-c2ccc(O)cc2)oc2cc(O)cc(O)c12", "note": "[kaempferol]", "values": [{"measurement": "concentration that kills", "setting": "[6]", "result": 5, "unit": "milligrams per milliliter"}, {"measurement": "antibiotic properties (in words)", "setting": "[2]", "result": "antibiotic properties"}]}
{"molecule": "S=C=NCCc1ccccc1", "note": "[phenylethyl isothiocyanate]", "values": [{"measurement": "concentration that kills", "setting": "[7]", "result": 2000, "unit": "microgram per milliliter"}]}
{"molecule": "pinene", "values": [{"measurement": "concentration that inhibits", "setting": "[8]", "result": "20 microliters per milliliter"}]}
{"molecule": "Oc1cc(O)c2c(c1)O[C@H](c1cc(O)c(O)c(O)c1)[C@@H](O)C2", "note": "[gallocatechin]", "values": [{"measurement": "antibiotic properties (in words)", "setting": "[2]", "result": "antibiotic properties"}]}
{"molecule": "C[C@H]1[C@H]2CC[C@H]3[C@@H]4CC=C5C[C@@H](N(C)C)CC[C@]5(C)[C@H]4CC[C@]23CN1C", "note": "[conessine]", "values": [{"measurement": "concentration that inhibits", "setting": "[9]", "result": 10, "unit": "milligrams per liter"}]}
{"molecule": "Oc1cc(O)c2c(c1)O[C@H](c1cc(O)c(O)c(O)c1)[C@H](O)C2", "note": "[epigallocatechin]", "values": [{"measurement": "antibiotic properties (in words)", "setting": "[2]", "result": "antibiotic properties"}]}
{"molecule": "Cn1cnc2c1c(=O)[nH]c(=O)n2C", "note": "[theobromine]", "values": [{"measurement": "antibiotic properties (in words)", "setting": "[2]", "result": "antibiotic properties"}]}
{"molecule": "Cc1ccc(C(C)C)cc1O", "note": "[Carvacrol]", "values": [{"measurement": "concentration that inhibits", "setting": "[10]", "result": 256, "unit": "micrograms per milliliter"}, {"measurement": "MBEC", "setting": "MRSA", "result": "0.04 percentage of volume"}, {"measurement": "MIC", "setting": "MRSA", "result": "0.02 percentage of volume"}]}
{"molecule": "O=C(O[C@@H]1Cc2c(O)cc(O)cc2O[C@@H]1c1ccc(O)c(O)c1)c1cc(O)c(O)c(O)c1", "note": "[epicatechin gallate]", "values": [{"measurement": "antibiotic properties (in words)", "setting": "[2]", "result": "antibiotic properties"}]}
{"molecule": "Cn1c(=O)c2[nH]cnc2n(C)c1=O", "note": "[theophylline]", "values": [{"measurement": "antibiotic properties (in words)", "setting": "[2]", "result": "antibiotic properties"}]}
{"molecule": "piliostigmol", "values": [{"measurement": "inhibition (in words)", "setting": "[11]", "result": "inhibits"}, {"measurement": "inhibition (in words)", "setting": "[12]", "result": "inhibits"}, {"measurement": "inhibition (in words)", "setting": "[13]", "result": "inhibits"}, {"measurement": "inhibition (in words)", "setting": "[14]", "result": "inhibits"}, {"measurement": "inhibition (in words)", "setting": "[15]", "result": "inhibits"}, {"measurement": "inhibition (in words)", "setting": "[16]", "result": "inhibits"}]}
{"molecule": "O=C(O[C@@H]1Cc2c(O)cc(O)cc2O[C@@H]1c1cc(O)c(O)c(O)c1)c1cc(O)c(O)c(O)c1", "note": "[EGCG, epigallocatechin gallate]", "values": [{"measurement": "concentration that kills", "setting": "[5]", "result": 1024, "unit": "microgram per milliliter"}, {"measurement": "antibiotic properties (in words)", "setting": "[2]", "result": "antibiotic properties"}]}
{"molecule": "CC(C)=CCCC(C)=CC=O", "note": "[citral]", "values": [{"measurement": "concentration that kills", "setting": "[17]", "result": 0.06, "unit": "%"}]}
{"molecule": "O=c1cc(-c2ccc(O)c(O)c2)oc2cc(O)cc(O)c12", "note": "[luteolin]", "values": [{"measurement": "concentration that kills", "setting": "[6]", "result": 5, "unit": "milligrams per milliliter"}]}
{"molecule": "theaflavin gallate", "values": [{"measurement": "antibiotic properties (in words)", "setting": "[2]", "result": "antibiotic properties"}]}
{"molecule": "O=C(O[C@@H]1Cc2c(O)cc(O)cc2O[C@@H]1c1cc(O)c(=O)c2c(O)c(O)cc([C@H]3Oc4cc(O)cc(O)c4C[C@H]3OC(=O)c3cc(O)c(O)c(O)c3)c2c1)c1cc(O)c(O)c(O)c1", "note": "[theaflavin digallate]", "values": [{"measurement": "antibiotic properties (in words)", "setting": "[2]", "result": "antibiotic properties"}]}
{"molecule": "O=C(O[C@@H]1Cc2c(O)cc(O)cc2O[C@@H]1c1ccc(O)cc1)c1cc(O)c(O)c(O)c1", "note": "[epiafzelechin gallate]", "values": [{"measurement": "antibiotic properties (in words)", "setting": "[2]", "result": "antibiotic properties"}]}
{"molecule": "CC1(C)[C@@H](O)CC[C@]2(C)[C@H]3C(=O)C=C4[C@@H]5C[C@@](C)(C(=O)O)CC[C@]5(C)CC[C@@]4(C)[C@]3(C)CC[C@@H]12", "note": "[glycerrhetinic acid]", "values": [{"measurement": "concentration that kills", "setting": "[18]", "result": 0.223, "unit": "µM"}]}
{"molecule": "O=c1c(O)c(-c2ccc(O)c(O)c2)oc2cc(O)cc(O)c12", "note": "[quercetin]", "values": [{"measurement": "concentration that kills", "setting": "[5]", "result": 1024, "unit": "microgram per milliliter"}, {"measurement": "concentration that kills", "setting": "[6]", "result": 5, "unit": "milligrams per milliliter"}, {"measurement": "antibiotic properties (in words)", "setting": "[2]", "result": "antibiotic properties"}]}
{"molecule": "theasinesin A", "values": [{"measurement": "antibiotic properties (in words)", "setting": "[2]", "result": "antibiotic properties"}]}
{"molecule": "trechebulin", "values": [{"measurement": "concentration that inhibits", "setting": "[3]", "result": "1,000 micrograms per milliliter"}]}
{"molecule": "O=C(O[C@@H]1O[C@@H]2COC(=O)c3cc(O)c(O)c(O)c3-c3c(cc(O)c(O)c3O)C(=O)O[C@H]([C@H]1O)[C@@H]2O)c1cc(O)c(O)c(O)c1", "note": "[corilagin]", "values": [{"measurement": "concentration that inhibits", "setting": "[3]", "result": "1,000 micrograms per milliliter"}]}
{"molecule": "COc1cc(/C=C/C(=O)O)ccc1O", "note": "[ferulic acid]", "values": [{"measurement": "concentration that kills", "setting": "[6]", "result": 5, "unit": "milligrams per milliliter"}]}
{"molecule": "O=C(/C=C/c1ccc(O)c(O)c1)O[C@@H]1C[C@](O)(C(=O)O)C[C@@H](O)[C@H]1O", "note": "[chlorogenic acid]", "values": [{"measurement": "concentration that kills", "setting": "[6]", "result": 5, "unit": "milligrams per milliliter"}, {"measurement": "antibiotic properties (in words)", "setting": "[2]", "result": "antibiotic properties"}]}
